Laboratory results taken from ChEMBL document CHEMBL4316626, “N-Acyl pyrazoles: Effective and tunable inhibitors of serine hydrolases” (Bioorg Med Chem, 2019).
The source made the active and inactive calls. No cut-off for these calls is given here.

tested on: not listed separately; experiment: Inhibition of recombinant rat FAAH deltaTM mutant expressed in Escherichia coli using 14C-labeled oleamide as substrate preincubated for 3 hrs followed by substrate addition and measured by TLC based Dixon-plot analysis; conditions: read-out: Ki(app)

Row | Compound | Ki [µM]
1 | CN(CCN(C)C(=O)n1cc(C#N)cn1)Cc1cccc(OCc2ccccc2)c1 | 0.0013
2 | CN(CCN(C)C(=O)n1cccn1)Cc1cccc(OCc2ccccc2)c1 | 0.0066
3 | N#Cc1cnn(C(=O)N2CCCCC2)c1 | 0.08
4 | Cc1cnn(C(=O)N(C)CCN(C)Cc2ccc(OCc3ccccc3)cc2)c1 | 0.07
5 | CN(CCN(C)C(=O)n1cccn1)Cc1ccc(OCc2ccccc2)cc1 | 0.013
6 | O=C(N1CCN(Cc2ccc3ccccc3c2)CC1)n1cccn1 | 0.0098
7 | Cc1cnn(C(=O)N2CCCN(Cc3ccc(OCc4ccccc4)cc3)CC2)c1 | 0.23
8 | CN(CCN(C)C(=O)n1cc(C#N)cn1)Cc1ccc(OCc2ccccc2)cc1 | 0.003
9 | N#Cc1cnn(C(=O)NCc2ccc(OC(c3ccccc3)c3ccccc3)cc2)c1 | 80
10 | Cc1cnn(C(=O)N2CCN(Cc3ccc(OCc4ccccc4)cc3)CC2)c1 | 0.1
11 | Cc1cnn(C(=O)N(C)CCN(C)C(c2ccc(OCc3ccccc3)cc2)c2ccc(OCc3ccccc3)cc2)c1 | 140
12 | O=C(N1CCCN(Cc2ccc(OCc3ccccc3)cc2)CC1)n1cccn1 | 0.034

target: T1, Fatty-acid amide hydrolase 1 (Mus musculus, UniProt O08914); experiment: Inhibition of FP-rhodamine probe binding to FAAH in mouse brain membrane proteome preincubated for 1 hr followed by FP-rhodamine addition and measured after 30 mins by SDS-PAGE based fluorescence assay; assay type: cell membranes; conditions: not given
T1 sequence (O08914 whole entry): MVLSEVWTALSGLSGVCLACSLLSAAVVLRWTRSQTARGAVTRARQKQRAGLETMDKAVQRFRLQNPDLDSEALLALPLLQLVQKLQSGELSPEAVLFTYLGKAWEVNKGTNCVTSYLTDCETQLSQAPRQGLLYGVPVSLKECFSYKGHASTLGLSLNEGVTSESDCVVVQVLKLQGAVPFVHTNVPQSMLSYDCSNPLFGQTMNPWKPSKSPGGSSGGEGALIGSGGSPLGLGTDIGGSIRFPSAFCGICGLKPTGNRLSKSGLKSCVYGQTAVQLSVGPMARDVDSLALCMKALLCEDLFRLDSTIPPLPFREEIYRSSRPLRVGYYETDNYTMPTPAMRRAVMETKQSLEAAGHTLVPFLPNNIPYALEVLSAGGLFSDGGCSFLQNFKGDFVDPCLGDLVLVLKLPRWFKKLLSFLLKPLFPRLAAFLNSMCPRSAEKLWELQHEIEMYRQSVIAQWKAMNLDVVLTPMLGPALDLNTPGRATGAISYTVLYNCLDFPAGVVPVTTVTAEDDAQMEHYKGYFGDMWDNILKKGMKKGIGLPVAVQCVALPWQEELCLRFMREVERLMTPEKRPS

Row | Compound | IC50 [µM]
13 | CN(CCN(C)C(c1ccc(OCc2ccccc2)cc1)c1ccc(OCc2ccccc2)cc1)C(=O)n1cc(C#N)cn1 | > 1000
14 | O=C(N1CCN(C(c2ccc3ccccc3c2)c2ccc3ccccc3c2)CC1)n1cccn1 | > 100
15 | CN(CCN(C)C(c1ccc(OCc2ccccc2)cc1)c1ccc(OCc2ccccc2)cc1)C(=O)n1cccn1 | > 1000
16 | N#Cc1cnn(C(=O)N2CCCCC2)c1 | < 0.01
17 | O=C(N1CCN(Cc2ccc3ccccc3c2)CC1)n1cccn1 | 0.09
18 | Cc1cnn(C(=O)N2CCCN(Cc3ccc(OCc4ccccc4)cc3)CC2)c1 | 0.56
19 | Cc1cnn(C(=O)N2CCN(C(c3ccc4ccccc4c3)c3ccc4ccccc4c3)CC2)c1 | > 100
20 | N#Cc1cnn(C(=O)NCc2ccc(OC(c3ccccc3)c3ccccc3)cc2)c1 | > 100
21 | Cc1cnn(C(=O)N2CCN(Cc3ccc(OCc4ccccc4)cc3)CC2)c1 | 0.65
22 | Cc1cnn(C(=O)N(C)CCN(C)C(c2ccc(OCc3ccccc3)cc2)c2ccc(OCc3ccccc3)cc2)c1 | > 1000
23 | O=C(N1CCCN(Cc2ccc(OCc3ccccc3)cc2)CC1)n1cccn1 | 0.45

Continued, values first:

Row | IC50 [µM] | Compound
24 | 0.19 | CN(CCN(C)C(=O)n1cc(C#N)cn1)Cc1cccc(OCc2ccccc2)c1
25 | 3 | CN(CCN(C)C(=O)n1cccn1)Cc1cccc(OCc2ccccc2)c1
26 | 8.7 | Cc1cnn(C(=O)N(C)CCN(C)Cc2ccc(OCc3ccccc3)cc2)c1
27 | 0.51 | CN(CCN(C)C(=O)n1cccn1)Cc1ccc(OCc2ccccc2)cc1
28 | 0.12 | CN(CCN(C)C(=O)n1cc(C#N)cn1)Cc1ccc(OCc2ccccc2)cc1

target: T2, Monoglyceride lipase (Mus musculus, UniProt O35678); experiment: Inhibition of FP-rhodamine probe binding to MGLL in mouse brain membrane proteome preincubated for 1 hr followed by FP-rhodamine addition and measured after 30 mins by SDS-PAGE based fluorescence assay; assay type: cell membranes; conditions: not given
T2 sequence (O35678 whole entry): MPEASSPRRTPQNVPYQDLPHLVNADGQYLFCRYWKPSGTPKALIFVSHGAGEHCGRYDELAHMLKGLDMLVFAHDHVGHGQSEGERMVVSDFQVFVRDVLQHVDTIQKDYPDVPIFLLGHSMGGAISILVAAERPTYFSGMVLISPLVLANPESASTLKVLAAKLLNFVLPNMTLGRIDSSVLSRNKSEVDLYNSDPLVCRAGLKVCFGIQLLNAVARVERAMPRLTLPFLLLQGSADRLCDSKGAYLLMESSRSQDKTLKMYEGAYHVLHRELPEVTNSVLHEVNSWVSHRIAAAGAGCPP

Row | Compound | IC50 [µM]
29 | CN(CCN(C)C(c1ccc(OCc2ccccc2)cc1)c1ccc(OCc2ccccc2)cc1)C(=O)n1cc(C#N)cn1 | 32
30 | O=C(N1CCN(C(c2ccc3ccccc3c2)c2ccc3ccccc3c2)CC1)n1cccn1 | 1.8
31 | CN(CCN(C)C(c1ccc(OCc2ccccc2)cc1)c1ccc(OCc2ccccc2)cc1)C(=O)n1cccn1 | > 1000
32 | N#Cc1cnn(C(=O)N2CCCCC2)c1 | 0.12
33 | O=C(N1CCN(Cc2ccc3ccccc3c2)CC1)n1cccn1 | 0.96
34 | Cc1cnn(C(=O)N2CCCN(Cc3ccc(OCc4ccccc4)cc3)CC2)c1 | 9.5
35 | Cc1cnn(C(=O)N2CCN(C(c3ccc4ccccc4c3)c3ccc4ccccc4c3)CC2)c1 | 0.26
36 | N#Cc1cnn(C(=O)NCc2ccc(OC(c3ccccc3)c3ccccc3)cc2)c1 | > 100
37 | Cc1cnn(C(=O)N2CCN(Cc3ccc(OCc4ccccc4)cc3)CC2)c1 | 0.2
38 | Cc1cnn(C(=O)N(C)CCN(C)C(c2ccc(OCc3ccccc3)cc2)c2ccc(OCc3ccccc3)cc2)c1 | > 1000
39 | O=C(N1CCCN(Cc2ccc(OCc3ccccc3)cc2)CC1)n1cccn1 | 10

Next, values leading:

Row | IC50 [µM] | Compound
40 | 0.59 | CN(CCN(C)C(=O)n1cc(C#N)cn1)Cc1cccc(OCc2ccccc2)c1
41 | 4.6 | CN(CCN(C)C(=O)n1cccn1)Cc1cccc(OCc2ccccc2)c1
42 | 1.2 | Cc1cnn(C(=O)N(C)CCN(C)Cc2ccc(OCc3ccccc3)cc2)c1
43 | 0.66 | CN(CCN(C)C(=O)n1cccn1)Cc1ccc(OCc2ccccc2)cc1
44 | 0.26 | CN(CCN(C)C(=O)n1cc(C#N)cn1)Cc1ccc(OCc2ccccc2)cc1

target: T3, Monoacylglycerol lipase ABHD6 (Mus musculus, UniProt Q8R2Y0); experiment: Inhibition of FP-rhodamine probe binding to ABHD6 in mouse brain membrane proteome preincubated for 1 hr followed by FP-rhodamine addition and measured after 30 mins by SDS-PAGE based fluorescence assay; assay type: cell membranes; conditions: not given
T3 sequence (Q8R2Y0 whole entry): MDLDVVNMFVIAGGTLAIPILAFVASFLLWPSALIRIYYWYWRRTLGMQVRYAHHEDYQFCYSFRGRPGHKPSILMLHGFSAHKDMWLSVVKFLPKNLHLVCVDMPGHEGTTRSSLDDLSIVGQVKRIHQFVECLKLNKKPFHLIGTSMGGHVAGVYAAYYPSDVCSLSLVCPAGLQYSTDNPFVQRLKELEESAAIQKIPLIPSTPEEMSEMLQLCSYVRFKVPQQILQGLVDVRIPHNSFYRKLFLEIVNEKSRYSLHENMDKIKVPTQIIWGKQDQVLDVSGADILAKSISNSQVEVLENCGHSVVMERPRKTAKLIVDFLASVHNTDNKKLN

Row | Compound | IC50 [µM]
45 | CN(CCN(C)C(c1ccc(OCc2ccccc2)cc1)c1ccc(OCc2ccccc2)cc1)C(=O)n1cc(C#N)cn1 | > 1000
46 | O=C(N1CCN(C(c2ccc3ccccc3c2)c2ccc3ccccc3c2)CC1)n1cccn1 | > 100
47 | CN(CCN(C)C(c1ccc(OCc2ccccc2)cc1)c1ccc(OCc2ccccc2)cc1)C(=O)n1cccn1 | > 1000
48 | N#Cc1cnn(C(=O)N2CCCCC2)c1 | 0.06
49 | O=C(N1CCN(Cc2ccc3ccccc3c2)CC1)n1cccn1 | 0.01
50 | Cc1cnn(C(=O)N2CCCN(Cc3ccc(OCc4ccccc4)cc3)CC2)c1 | 9.5
51 | Cc1cnn(C(=O)N2CCN(C(c3ccc4ccccc4c3)c3ccc4ccccc4c3)CC2)c1 | > 100
52 | Cc1cnn(C(=O)N2CCN(Cc3ccc(OCc4ccccc4)cc3)CC2)c1 | 0.01
53 | Cc1cnn(C(=O)N(C)CCN(C)C(c2ccc(OCc3ccccc3)cc2)c2ccc(OCc3ccccc3)cc2)c1 | > 1000
54 | O=C(N1CCCN(Cc2ccc(OCc3ccccc3)cc2)CC1)n1cccn1 | 0.96

Next, values leading:

Row | IC50 [µM] | Compound
55 | 1.1 | CN(CCN(C)C(=O)n1cc(C#N)cn1)Cc1cccc(OCc2ccccc2)c1
56 | 5.5 | CN(CCN(C)C(=O)n1cccn1)Cc1cccc(OCc2ccccc2)c1
57 | 1.2 | Cc1cnn(C(=O)N(C)CCN(C)Cc2ccc(OCc3ccccc3)cc2)c1
58 | 0.53 | CN(CCN(C)C(=O)n1cccn1)Cc1ccc(OCc2ccccc2)cc1
59 | 0.32 | CN(CCN(C)C(=O)n1cc(C#N)cn1)Cc1ccc(OCc2ccccc2)cc1

target: T4, Neutral cholesterol ester hydrolase 1 (Mus musculus, UniProt Q8BLF1); experiment: Inhibition of FP-rhodamine probe binding to KIAA1363 in mouse brain membrane proteome preincubated for 1 hr followed by FP-rhodamine addition and measured after 30 mins by SDS-PAGE based fluorescence assay; assay type: cell membranes; conditions: not given
T4 sequence (Q8BLF1 whole entry): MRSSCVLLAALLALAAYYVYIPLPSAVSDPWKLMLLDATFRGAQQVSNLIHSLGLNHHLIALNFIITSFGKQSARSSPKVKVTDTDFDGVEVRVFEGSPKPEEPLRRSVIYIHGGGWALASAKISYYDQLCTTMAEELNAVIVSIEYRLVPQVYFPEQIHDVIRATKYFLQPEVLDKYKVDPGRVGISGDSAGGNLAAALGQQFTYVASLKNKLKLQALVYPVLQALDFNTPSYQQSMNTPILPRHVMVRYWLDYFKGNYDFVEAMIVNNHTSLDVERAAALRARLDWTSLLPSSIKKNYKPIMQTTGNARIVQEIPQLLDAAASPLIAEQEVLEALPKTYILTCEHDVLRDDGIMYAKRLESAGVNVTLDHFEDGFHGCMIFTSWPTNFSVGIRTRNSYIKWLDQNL

Row | Compound | IC50 [µM]
60 | CN(CCN(C)C(c1ccc(OCc2ccccc2)cc1)c1ccc(OCc2ccccc2)cc1)C(=O)n1cc(C#N)cn1 | > 1000
61 | O=C(N1CCN(C(c2ccc3ccccc3c2)c2ccc3ccccc3c2)CC1)n1cccn1 | > 100
62 | CN(CCN(C)C(c1ccc(OCc2ccccc2)cc1)c1ccc(OCc2ccccc2)cc1)C(=O)n1cccn1 | > 1000
63 | N#Cc1cnn(C(=O)N2CCCCC2)c1 | > 100
64 | O=C(N1CCN(Cc2ccc3ccccc3c2)CC1)n1cccn1 | > 100
65 | Cc1cnn(C(=O)N2CCCN(Cc3ccc(OCc4ccccc4)cc3)CC2)c1 | > 100
66 | Cc1cnn(C(=O)N2CCN(C(c3ccc4ccccc4c3)c3ccc4ccccc4c3)CC2)c1 | > 100
67 | N#Cc1cnn(C(=O)NCc2ccc(OC(c3ccccc3)c3ccccc3)cc2)c1 | > 100
68 | Cc1cnn(C(=O)N2CCN(Cc3ccc(OCc4ccccc4)cc3)CC2)c1 | > 100
69 | Cc1cnn(C(=O)N(C)CCN(C)C(c2ccc(OCc3ccccc3)cc2)c2ccc(OCc3ccccc3)cc2)c1 | > 1000
70 | O=C(N1CCCN(Cc2ccc(OCc3ccccc3)cc2)CC1)n1cccn1 | > 100

The next lines start with the values.

Row | IC50 [µM] | Compound
71 | > 100 | CN(CCN(C)C(=O)n1cc(C#N)cn1)Cc1cccc(OCc2ccccc2)c1
72 | > 100 | CN(CCN(C)C(=O)n1cccn1)Cc1cccc(OCc2ccccc2)c1
73 | > 100 | Cc1cnn(C(=O)N(C)CCN(C)Cc2ccc(OCc3ccccc3)cc2)c1
74 | > 100 | CN(CCN(C)C(=O)n1cccn1)Cc1ccc(OCc2ccccc2)cc1
75 | > 100 | CN(CCN(C)C(=O)n1cc(C#N)cn1)Cc1ccc(OCc2ccccc2)cc1

organism: Rattus norvegicus; experiment: Time-dependent irreversible inhibition of recombinant rat FAAH deltaTM mutant expressed in Escherichia coli using 14C-labeled oleamide as substrate by TLC method; conditions: not given

Row | TDI | Compound
76 | Active | Cc1cnn(C(=O)N2CCN(Cc3ccc(OCc4ccccc4)cc3)CC2)c1

organism: Rattus norvegicus; experiment: Inhibition of recombinant rat FAAH deltaTM mutant expressed in Escherichia coli at 100 nM using 14C-labeled oleamide as substrate preincubated for 3 hrs by TLC method relative to control; conditions: not given

Row | inhibition [%] | Compound
77 | > 70 | Cc1cnn(C(=O)N2CCN(Cc3ccc(OCc4ccccc4)cc3)CC2)c1

organism: Rattus norvegicus; experiment: Inhibition of recombinant rat FAAH deltaTM mutant expressed in Escherichia coli at 50 nM using 14C-labeled oleamide as substrate preincubated for 3 hrs by TLC method relative to control; conditions: not given

Row | inhibition [%] | Compound
78 | > 70 | O=C(N1CCN(Cc2ccc3ccccc3c2)CC1)n1cccn1

organism: Rattus norvegicus; experiment: Irreversible inhibition of recombinant rat FAAH deltaTM mutant expressed in Escherichia coli at 100 nM using 14C-labeled oleamide as substrate preincubated for 3 hrs followed by dialysis for 18 hrs; conditions: not given

Row | inhibition | Compound
79 | Active | Cc1cnn(C(=O)N2CCN(Cc3ccc(OCc4ccccc4)cc3)CC2)c1

organism: Rattus norvegicus; experiment: Irreversible inhibition of recombinant rat FAAH deltaTM mutant expressed in Escherichia coli at 50 nM using 14C-labeled oleamide as substrate preincubated for 3 hrs followed by dialysis for 18 hrs; conditions: not given

Row | inhibition | Compound
80 | Active | O=C(N1CCN(Cc2ccc3ccccc3c2)CC1)n1cccn1
